Data as given in PMC12467433, “Isoniazid-Derived Hydrazones Featuring Piperazine/Piperidine Rings: Design, Synthesis, and Investigation of Antitubercular Activity” (Biomolecules, 2025).
≈ marks a conversion by molar mass, not a printed value.

Legend:
[1] = test system: INH-resistant Mtb clinical isolate with inhA promoter mutation; assay type: cell-based, Mycobacterium tuberculosis
[2] = test system: INH-resistant Mtb clinical isolate with katG S315T mutation; assay type: cell-based, Mycobacterium tuberculosis

NNC(=O)c1ccncc1 [INH, isonicotinic acid hydrazide, reference compound]
MIC [1]: 1.56 µM (≈ 0.214 µg/mL) | MIC [2]: 6.25 µM (≈ 0.857 µg/mL)

COc1ccc(N2CCN(c3ccc(C=NNC(=O)c4ccncc4)cc3)CC2)cc1 [IP7, N′-(4-(4-(4-Methoxyphenyl)piperazin-1-yl)benzylidene)isonicotinohydrazide]
MIC [1]: 25 µM (≈ 10.4 µg/mL) | MIC [2]: 100 µM (≈ 41.5 µg/mL)

O=C(NN=Cc1ccc(N2CCN(c3ccccn3)CC2)cc1)c1ccncc1 [IP8, N′-(4-(4-(Pyridin-2-yl)piperazin-1-yl)benzylidene)isonicotinohydrazide]
MIC [1]: 1.56 µM (≈ 0.603 µg/mL) | MIC [2]: 50 µM (≈ 19.3 µg/mL)

O=C(NN=Cc1ccc(N2CCN(c3ncccn3)CC2)cc1)c1ccncc1 [IP9, N′-(4-(4-(Pyrimidin-2-yl)piperazin-1-yl)benzylidene)isonicotinohydrazide]
MIC [1]: 3.12 µM (≈ 1.21 µg/mL) | MIC [2]: 25 µM (≈ 9.69 µg/mL)

CN1CCN(c2ccc(C=NNC(=O)c3ccncc3)cc2)CC1 [IP10, N′-(4-(4-Methylpiperazin-1-yl)benzylidene)isonicotinohydrazide]
MIC [1]: 1.56 µM (≈ 0.505 µg/mL) | MIC [2]: 25 µM (≈ 8.09 µg/mL)

O=C(NN=Cc1ccc(N2CCN(C3CCCCC3)CC2)cc1)c1ccncc1 [IP11, N′-(4-(4-Cyclohexylpiperazin-1-yl)benzylidene)isonicotinohydrazide]
MIC [1]: 0.78 µM (≈ 0.305 µg/mL) | MIC [2]: 12.5 µM (≈ 4.89 µg/mL)

CCOC(=O)C1CCN(c2ccc(C=NNC(=O)c3ccncc3)cc2)CC1 [IP12, Ethyl 1-(4-((2-isonicotinoylhydrazono)methyl)phenyl)piperidine-4-carboxylate]
MIC [1]: 1.56 µM (≈ 0.593 µg/mL) | MIC [2]: 25 µM (≈ 9.51 µg/mL)

NC(=O)C1CCN(c2ccc(C=NNC(=O)c3ccncc3)cc2)CC1 [IP13, 1-(4-((2-Isonicotinoylhydrazono)methyl)phenyl)piperidine-4-carboxamide]
MIC [1]: 1.56 µM (≈ 0.548 µg/mL) | MIC [2]: 50 µM (≈ 17.6 µg/mL)
